Patent EP0347459A1, “CEPHALOSPORIN COMPOUNDS OR THEIR SALTS, PROCESS FOR THEIR PREPARATION, AND PHARMACEUTICAL COMPOSITIONS” (TEIJIN LIMITED, priority 1987, dated 1988)
In brackets after ≈: the same amount, converted by molar mass.

Experiments:
Type in all cases: cell-based
S. aureus Terajima = assay: In vitro antibacterial activity, agar disc dilution method; details: Staphylococcus aureus; S. aureus Terajima; Mueller Hinton agar, 10^6/ml, 37°C for 16 hours; read-out: minimum growth inhibitory concentration (MIC)
Method: (§1) An in vitro antibacterial activity was measured by an agar disc dilution method.
(§2) Varied test bacteria were cultivated overnight in triptophane-soybroth. A Mueller Hinton agar containing the compound of this invention in varied concentrations was streaked with one platinum loopful of each of the bacteria (number of living cells 10^6/ml).

P.aeruginosa PAD1 = assay: as above; details: Pseudomonas aeruginosa; P.aeruginosa PAD1; Mueller Hinton agar, 10^6/ml, 37°C for 16 hours; read-out: minimum growth inhibitory concentration (MIC)
Method: as §1, §2

M.luteus ATCC9341 = assay: as above; details: Micrococcus luteus; M.luteus ATCC9341; Mueller Hinton agar, 10^6/ml, 37°C for 16 hours; read-out: minimum growth inhibitory concentration (MIC)
Method: as §1, §2

S.enteritidis G14 = assay: as above; details: Salmonella enterica; S.enteritidis G14; Mueller Hinton agar, 10^6/ml, 37°C for 16 hours; read-out: minimum growth inhibitory concentration (MIC)
Method: as §1, §2

P.aeruginosa NCTC1049 = assay: as above; details: Pseudomonas aeruginosa; P.aeruginosa NCTC1049; Mueller Hinton agar, 10^6/ml, 37°C for 16 hours; read-out: minimum growth inhibitory concentration (MIC)
Method: as §1, §2

K.pneumoniae PCI602 = assay: as above; details: Klebsiella pneumoniae; K.pneumoniae PCI602; Mueller Hinton agar, 10^6/ml, 37°C for 16 hours; read-out: minimum growth inhibitory concentration (MIC)
Method: as §1, §2

P.vulgalis OX-11 = assay: as above; details: P.vulgalis OX-11; Mueller Hinton agar, 10^6/ml, 37°C for 16 hours; read-out: minimum growth inhibitory concentration (MIC)
Method: as §1, §2

P.aeruginosa IFO3445 = assay: as above; details: Pseudomonas aeruginosa; P.aeruginosa IFO3445; Mueller Hinton agar, 10^6/ml, 37°C for 16 hours; read-out: minimum growth inhibitory concentration (MIC)
Method: as §1, §2

P.morganii IFO3445 = assay: as above; details: Morganella morganii; P.morganii IFO3445; Mueller Hinton agar, 10^6/ml, 37°C for 16 hours; read-out: minimum growth inhibitory concentration (MIC)
Method: as §1, §2

E.cloacae 963 = assay: as above; details: Enterobacter cloacae; E.cloacae 963; Mueller Hinton agar, 10^6/ml, 37°C for 16 hours; read-out: minimum growth inhibitory concentration (MIC)
Method: as §1, §2

S.pyogenes Cook = assay: as above; details: Streptococcus pyogenes; S.pyogenes Cook; Mueller Hinton agar, 10^6/ml, 37°C for 16 hours; read-out: minimum growth inhibitory concentration (MIC)
Method: as §1, §2

S.aureus 209p NIHJ JC1 = assay: as above; details: Staphylococcus aureus; S.aureus 209p NIHJ JC1; Mueller Hinton agar, 10^6/ml, 37°C for 16 hours; read-out: minimum growth inhibitory concentration (MIC)
Method: as §1, §2

S.typhi 901 = assay: as above; details: Salmonella enterica, 16 h, read-out: minimum growth inhibitory concentration (MIC)
Method: as §1, §2

S.marcescens IAM1184 = assay: as above; details: Serratia marcescens; S.marcescens IAM1184; Mueller Hinton agar, 10^6/ml, 37°C for 16 hours; read-out: minimum growth inhibitory concentration (MIC)
Method: as §1, §2

P.aeruginosa 0-11 = assay: MIC values of 10 kinds of Pseudomonas aeruginosa; details: Pseudomonas aeruginosa, 011, 16 h; P.aeruginosa 0-11 (Table II); read-out: MIC values
Method: as §1, §2
(§3) MIC values of 10 kinds of Pseudomonas aeruginosa were measured for Compound III, Comparative Example B and CAZ.

P.aeruginosa N-2 = assay: MIC values of 10 kinds of Pseudomonas aeruginosa; details: N2, 16 h, P.aeruginosa N-2 (Table II), read-out: MIC values
Method: as §1, §2, §3

P.aeruginosa NO. 97 = assay: MIC values of 10 kinds of Pseudomonas aeruginosa; details: 16 h, P.aeruginosa NO. 97 (Table II), read-out: MIC values
Method: as §1, §2, §3

P.aeruginosa ATCC27318 = assay: MIC values of 10 kinds of Pseudomonas aeruginosa; details: 16 h, P.aeruginosa ATCC27318 (Table II), read-out: MIC values
Method: as §1, §2, §3

P.aeruginosa N-26 = assay: MIC values of 10 kinds of Pseudomonas aeruginosa; details: N26, 16 h, P.aeruginosa N-26 (Table II), read-out: MIC values
Method: as §1, §2, §3

P.aeruginosa 88 = assay: MIC values of 10 kinds of Pseudomonas aeruginosa; details: Pseudomonas aeruginosa, 16 h; P.aeruginosa 88 (Table II); read-out: MIC values
Method: as §1, §2, §3

P.aeruginosa N-3 = assay: MIC values of 10 kinds of Pseudomonas aeruginosa; details: N3, 16 h, P.aeruginosa N-3 (Table II), read-out: MIC values
Method: as §1, §2, §3

P.aeruginosa Tid53 = assay: MIC values of 10 kinds of Pseudomonas aeruginosa; details: 16 h, P.aeruginosa Tid53 (Table II), read-out: MIC values
Method: as §1, §2, §3

P.aeruginosa 64 = assay: MIC values of 10 kinds of Pseudomonas aeruginosa; details: Pseudomonas aeruginosa, 16 h; P.aeruginosa 64 (Table II); read-out: MIC values
Method: as §1, §2, §3

P.aeruginosa ATCC27577 = assay: MIC values of 10 kinds of Pseudomonas aeruginosa; details: 16 h, P.aeruginosa ATCC27577 (Table II), read-out: MIC values
Method: as §1, §2, §3

`CC(C)(ON=C(C(=O)NC1C(=O)N2C(C(=O)[O-])=C(C[n+]3ccc4cc(O)c(O)cc4c3)CSC12)c1nsc(N)n1)C(=O)O` [Compound III, (6R,7R)-7-[(Z)-2-(5-amino-1,2,4-thiadiazol-3-yl)-2-(2-carboxypropyl-2-yloxyimino)acetamide]-3-(6,7-dihydroxy-2-isoquinolinium)methyl-3-ce phem-4-carboxylate] gave an MIC (S. aureus Terajima) of 3100 ng/mL (≈ 4.92 µM), an MIC (P.aeruginosa PAD1) of 12.5 ng/mL (≈ 0.0199 µM) and an MIC (M.luteus ATCC9341) of 3100 ng/mL (≈ 4.92 µM). The MIC (S.enteritidis G14) was 5 ng/mL (≈ 0.00794 µM), the MIC (P.aeruginosa NCTC1049) was 5 ng/mL (≈ 0.00794 µM) and the MIC (K.pneumoniae PCI602) was 5 ng/mL (≈ 0.00794 µM). It also gave an MIC (P.vulgalis OX-11) of 5 ng/mL (≈ 0.00794 µM), an MIC (P.aeruginosa IFO3445) of 12.5 ng/mL (≈ 0.0199 µM) and an MIC (P.morganii IFO3445) of 5 ng/mL (≈ 0.00794 µM). The MIC (E.cloacae 963) was 5 ng/mL (≈ 0.00794 µM), the MIC (S.pyogenes Cook) was 1600 ng/mL (≈ 2.54 µM) and the MIC (S.aureus 209p NIHJ JC1) was 12500 ng/mL (≈ 19.9 µM). The MIC (S.typhi 901) was 5 ng/mL (≈ 0.00794 µM), the MIC (S.marcescens IAM1184) was 5 ng/mL (≈ 0.00794 µM) and the MIC (P.aeruginosa 0-11) was 5 ng/mL (≈ 0.00794 µM). It also gave an MIC (P.aeruginosa N-2) of 25 ng/mL (≈ 0.0397 µM), an MIC (P.aeruginosa NO. 97) of 5 ng/mL (≈ 0.00794 µM) and an MIC (P.aeruginosa ATCC27318) of 12.5 ng/mL (≈ 0.0199 µM). The MIC (P.aeruginosa N-26) was 12.5 ng/mL (≈ 0.0199 µM), the MIC (P.aeruginosa 88) was 12.5 ng/mL (≈ 0.0199 µM) and the MIC (P.aeruginosa N-3) was 12.5 ng/mL (≈ 0.0199 µM). For the same compound, the MIC (P.aeruginosa Tid53) was 5 ng/mL (≈ 0.00794 µM), the MIC (P.aeruginosa 64) was 12.5 ng/mL (≈ 0.0199 µM) and the MIC (P.aeruginosa ATCC27577) was 5 ng/mL (≈ 0.00794 µM).
